Measurements: PubChem BioAssay (NCI)
Where “and” joins values, the source holds several entries; their conditions need not be identical. Equal entries are not always repeated.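 Results reflect a 48-hour exposure of cells in 96-well plates to compound at five concentrations. GI50 = concentration required for 50% inhibition of growth. TGI is the concentration that stops growth completely.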

What was measured:
Test in all cases: NCI anticancer screen, dose series, 48 h
[1] = tested on: 786-0 renal
[2] = tested on: BT-549 breast
[3] = tested on: COLO 205 colon
[4] = tested on: KM12 colon
[5] = tested on: MALME-3M melanoma
[6] = tested on: NCI-H226 lung
[7] = tested on: SW-620 colon
[8] = tested on: TK-10 renal
[9] = tested on: U251 CNS
[10] = tested on: UACC-62 melanoma

Question: Which results are given for `O=C(CC(Cl)=C(Cl)Cl)Nc1ccccc1`?
Answer: GI50 [1]: > 100 µM; TGI [1]: > 100 µM; GI50 [2]: > 100 µM; TGI [2]: > 100 µM; GI50 [3]: > 100 µM; TGI [3]: > 100 µM; GI50 [4]: > 100 µM; TGI [4]: > 100 µM; GI50 [5]: > 100 µM; TGI [5]: > 100 µM; GI50 [6]: > 100 µM; TGI [6]: > 100 µM; GI50 [7]: > 100 µM; TGI [7]: > 100 µM; GI50 [8]: > 100 µM; TGI [8]: > 100 µM; GI50 [9]: > 100 µM; TGI [9]: > 100 µM; GI50 [10]: > 100 µM; TGI [10]: > 100 µM

Question: With `CC(C)(Br)C(=O)N1CCN(C(c2ccccc2)c2ccccc2)CC1` as the molecule, how does the TGI [1] read?
Answer: > 100 µM

Question: And the TGI [2]?
Answer: > 100 µM

Question: What about the TGI [3] of the same molecule?
Answer: > 100 µM

Question: What about the TGI [4] of the same molecule?
Answer: 31.8 µM

Question: What about the TGI [5] of the same molecule?
Answer: > 100 µM

Question: What about the TGI [6] of the same molecule?
Answer: > 100 µM

Question: What about the TGI [7] of the same molecule?
Answer: > 100 µM

Question: And the TGI [8]?
Answer: > 100 µM

Question: What about the TGI [9] of the same molecule?
Answer: > 100 µM

Question: What about the TGI [10] of the same molecule?
Answer: > 100 µM

Question: For `COc1cc2c(cc1OC)[C@@H](Nc1ccc(C#N)cc1)C1COC(=O)[C@@H]1C2c1cc(OC)c(O)c(OC)c1` (stereo partly specified), which TGI [1] is on record?
Answer: 2.76 µM

Question: What about the TGI [2] of the same molecule?
Answer: 9.78 µM

Question: And the TGI [3]?
Answer: 15.6 µM

Question: What about the GI50 [4] of the same molecule?
Answer: 1.43 µM

Question: What about the GI50 [5] of the same molecule?
Answer: 1.36 µM and 2.47 µM

Question: And the TGI [5]?
Answer: 70.7 µM and 44.2 µM

Question: What about the TGI [6] of the same molecule?
Answer: 0.298 µM

Question: And the TGI [7]?
Answer: 18.8 µM and > 100 µM

Question: And the GI50 [8]?
Answer: 2.49 µM and 1.06 µM

Question: And the TGI [8]?
Answer: 6.73 µM and 7.87 µM

Question: What about the GI50 [9] of the same molecule?
Answer: 0.0457 µM and 0.178 µM

Question: What about the GI50 [10] of the same molecule?
Answer: 0.372 µM and 0.167 µM

Question: What about the TGI [10] of the same molecule?
Answer: 12.9 µM and 2.68 µM

Question: `O=Nc1ccc(O)c(=O)cc1` was tested. Which GI50 [1] did it give?
Answer: 2.18 µM

Question: What about the TGI [1] of the same molecule?
Answer: 5.52 µM

Question: And the GI50 [2]?
Answer: 2.86 µM

Question: What about the TGI [2] of the same molecule?
Answer: 8.75 µM

Question: And the GI50 [3]?
Answer: 1.08 µM

Question: What about the TGI [3] of the same molecule?
Answer: 3.45 µM

Question: What about the GI50 [4] of the same molecule?
Answer: 5.99 µM

Question: And the TGI [4]?
Answer: 16.3 µM

Question: And the GI50 [5]?
Answer: 1.21 µM

Question: What about the TGI [5] of the same molecule?
Answer: 4.14 µM

Question: And the GI50 [6]?
Answer: 2.5 µM

Question: What about the TGI [6] of the same molecule?
Answer: 8.64 µM

Question: What about the GI50 [7] of the same molecule?
Answer: 0.657 µM

Question: And the TGI [7]?
Answer: 2.35 µM

Question: And the GI50 [8]?
Answer: 1.82 µM

Question: What about the TGI [8] of the same molecule?
Answer: 9.18 µM

Question: What about the GI50 [9] of the same molecule?
Answer: 3.08 µM

Question: What about the TGI [9] of the same molecule?
Answer: 11.6 µM

Question: What about the GI50 [10] of the same molecule?
Answer: 2.01 µM

Question: And the TGI [10]?
Answer: 5.68 µM

Question: For `CCOC(=O)c1ccc(NC(=O)Nc2nncs2)cc1`, which GI50 [1] is on record?
Answer: 0.474 µM

Question: And the TGI [1]?
Answer: 14.5 µM

Question: What about the GI50 [2] of the same molecule?
Answer: 0.735 µM

Question: What about the TGI [2] of the same molecule?
Answer: 13.3 µM

Question: What about the GI50 [3] of the same molecule?
Answer: 0.174 µM

Question: And the TGI [3]?
Answer: 2.63 µM

Question: What about the GI50 [4] of the same molecule?
Answer: 0.136 µM

Question: And the TGI [4]?
Answer: 11.8 µM

Question: And the GI50 [5]?
Answer: 0.132 µM

Question: And the TGI [5]?
Answer: 36.1 µM

Question: What about the GI50 [6] of the same molecule?
Answer: 1.09 µM

Question: And the TGI [6]?
Answer: 19.5 µM

Question: And the GI50 [7]?
Answer: 0.0818 µM

Question: And the TGI [7]?
Answer: > 100 µM

Question: What about the GI50 [8] of the same molecule?
Answer: 5.79 µM

Question: What about the TGI [8] of the same molecule?
Answer: 41.2 µM

Question: And the GI50 [9]?
Answer: 0.25 µM

Question: And the TGI [9]?
Answer: 12.7 µM

Question: And the GI50 [10]?
Answer: 0.0761 µM

Question: What about the TGI [10] of the same molecule?
Answer: 26.4 µM

Question: For `CCN1C(=S)N(c2ccccc2)C2NC(=S)N(/N=C/C=C/c3ccccc3OC)C21` (stereo unspecified), which GI50 [1] is on record?
Answer: 0.639 µM

Question: What about the TGI [1] of the same molecule?
Answer: > 100 µM

Question: What about the GI50 [2] of the same molecule?
Answer: 0.954 µM

Question: And the GI50 [3]?
Answer: 0.435 µM

Question: What about the TGI [3] of the same molecule?
Answer: 2.16 µM

Question: What about the GI50 [4] of the same molecule?
Answer: 0.323 µM

Question: And the TGI [4]?
Answer: > 64.8 µM

Question: And the GI50 [5]?
Answer: 0.957 µM

Question: What about the TGI [5] of the same molecule?
Answer: > 100 µM

Question: What about the GI50 [6] of the same molecule?
Answer: 0.962 µM

Question: And the TGI [6]?
Answer: > 23.1 µM

Question: What about the GI50 [7] of the same molecule?
Answer: 0.404 µM

Question: And the TGI [7]?
Answer: > 100 µM

Question: What about the TGI [8] of the same molecule?
Answer: > 100 µM

Question: What about the GI50 [9] of the same molecule?
Answer: 0.393 µM

Question: What about the TGI [9] of the same molecule?
Answer: > 100 µM

Question: What about the GI50 [10] of the same molecule?
Answer: 0.421 µM

Question: What about the TGI [10] of the same molecule?
Answer: > 100 µM

Question: What does the source list for `NS(=O)(=O)c1ccc(Nc2cc(-c3cccc(O)c3)[nH]n2)cc1`?
Answer: GI50 [1]: > 25 µM; TGI [1]: > 25 µM; GI50 [2]: > 24.1 µM; TGI [2]: > 25 µM; GI50 [3]: > 25 µM; TGI [3]: > 25 µM; GI50 [4]: > 23.7 µM; TGI [4]: > 25 µM; GI50 [5]: > 25 µM; TGI [5]: > 25 µM; GI50 [6]: > 25 µM; TGI [6]: > 25 µM; GI50 [7]: > 25 µM; TGI [7]: > 25 µM; GI50 [8]: > 25 µM; TGI [8]: > 25 µM; GI50 [9]: 24.4 µM; TGI [9]: > 25 µM; GI50 [10]: > 24.2 µM; TGI [10]: > 25 µM

Question: Which results are given for `O=S(=O)(NCCCNc1nccc(-c2c(-c3ccc(O)cc3)nc3sccn23)n1)c1ccc(F)cc1`?
Answer: GI50 [1]: 3.22 µM; TGI [1]: > 100 µM; GI50 [2]: 2.36 µM; TGI [2]: 10.4 µM; GI50 [3]: 0.0527 µM; TGI [3]: 2.19 µM; GI50 [4]: 2.02 µM; TGI [4]: 5.46 µM; GI50 [5]: 0.0391 µM; TGI [5]: 3.56 µM; GI50 [6]: 2.15 µM; TGI [6]: 10.1 µM; GI50 [7]: 3.66 µM; TGI [7]: > 100 µM; GI50 [8]: 4.48 µM; TGI [8]: 32.2 µM; GI50 [9]: 2.92 µM; TGI [9]: 12.4 µM; GI50 [10]: 0.0245 µM; TGI [10]: 1.33 µM

Question: For `CCN(Cc1ccc(C)cc1)c1ccc(CO)c(Cl)c1`, which GI50 [1] is on record?
Answer: 4.32 µM

Question: And the TGI [1]?
Answer: 19.3 µM

Question: What about the GI50 [2] of the same molecule?
Answer: 5 µM

Question: What about the TGI [2] of the same molecule?
Answer: 19 µM

Question: What about the GI50 [3] of the same molecule?
Answer: 0.996 µM

Question: And the TGI [3]?
Answer: 4.05 µM

Question: What about the GI50 [4] of the same molecule?
Answer: 14.6 µM

Question: What about the TGI [4] of the same molecule?
Answer: 29.6 µM

Question: What about the GI50 [5] of the same molecule?
Answer: 15.5 µM

Question: And the TGI [5]?
Answer: 32.2 µM

Question: What about the GI50 [6] of the same molecule?
Answer: 0.0702 µM

Question: What about the TGI [6] of the same molecule?
Answer: 0.204 µM

Question: What about the GI50 [7] of the same molecule?
Answer: 0.763 µM

Question: What about the TGI [7] of the same molecule?
Answer: 16.5 µM

Question: What about the GI50 [8] of the same molecule?
Answer: 0.0795 µM

Question: What about the TGI [8] of the same molecule?
Answer: 0.309 µM

Question: What about the GI50 [9] of the same molecule?
Answer: 0.867 µM

Question: And the TGI [9]?
Answer: 14.5 µM

Question: And the GI50 [10]?
Answer: 0.0933 µM

Question: What about the TGI [10] of the same molecule?
Answer: 0.684 µM
